In PubChem BioAssay (NCI):
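Growth conditions: 96-well plates. Treatment: test compound, 48 hours, 5 concentrations. Analysis: linear interpolation between bracketing concentrations; unreached endpoints set to highest concentration. Abbreviation: GI50, concentration required for 50% inhibition of growth. TGI: total growth inhibition.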

Tests used:
Test in all cases: NCI tumour cell line growth inhibition, 48 h
DU-145 prostate = tested on: DU-145 prostate
HOP-62 NSCLC = tested on: HOP-62 NSCLC
SW-620 colon = tested on: SW-620 colon
SNB-75 CNS = tested on: SNB-75 CNS
SNB-19 CNS = tested on: SNB-19 CNS
SK-MEL-28 melanoma = tested on: SK-MEL-28 melanoma
NCI-H460 lung = tested on: NCI-H460 lung
OVCAR-3 ovarian = tested on: OVCAR-3 ovarian
NCI-H23 lung = tested on: NCI-H23 lung
CCRF-CEM leukemia = tested on: CCRF-CEM leukemia

Structure (SMILES) | GI50 (DU-145 prostate) [nM] | TGI (DU-145 prostate) [µM] | GI50 (HOP-62 NSCLC) [nM] | TGI (HOP-62 NSCLC) [µM] | GI50 (SW-620 colon) [nM] | TGI (SW-620 colon) [µM] | GI50 (SNB-75 CNS) [nM] | TGI (SNB-75 CNS) [µM] | GI50 (SNB-19 CNS) [nM] | TGI (SNB-19 CNS) [µM] | GI50 (SK-MEL-28 melanoma) [nM] | TGI (SK-MEL-28 melanoma) [µM] | GI50 (NCI-H460 lung) [nM] | TGI (NCI-H460 lung) [µM] | GI50 (OVCAR-3 ovarian) [nM] | TGI (OVCAR-3 ovarian) [µM] | GI50 (NCI-H23 lung) [nM] | TGI (NCI-H23 lung) [µM] | GI50 (CCRF-CEM leukemia) [nM] | TGI (CCRF-CEM leukemia) [µM]
CCCCCCCCCCCCNC(=O)[C@H]1CSC(c2ccsc2)N1 (some centres not stated) | 979 | 1.82 | 873 | 1.62 | 969 | 1.85 | 938 | 1.67 | 952 | 1.83 | 814 | 1.54 | 986 | 1.84 | 995 | 1.81 | 992 | 1.94 |  | 
COc1ccc(-c2nc(/C=N/Nc3cc(C)nc4ccc(Br)cc34)c(C)o2)cc1 | 1750 | 3.34 | 1670 | 3.25 | 415 | 1.56 | 1680 | 3.28 | 1950 | 3.73 | 1790 | 3.23 | 1930 | 3.73 | 1840 | 3.41 |  |  | 732 | 3.38
O=C(O)C(Cc1c[nH]c2ccccc12)N1C(=O)c2ccccc2C1=O (configuration not stated) |  | > 100 |  | > 100 |  | > 100 |  | > 100 |  | > 100 |  | > 100 |  | > 100 |  | > 100 |  | > 100 |  | 
COc1ccc(C2NC(=S)NC3=C2COc2ccc(F)cc23)cc1OC (configuration not stated) | 33200 | > 100 | 26800 | > 100 | 24500 | > 100 |  |  | 46700 | > 100 | 41200 | > 100 | 24100 | > 100 | 11000 | 49.9 | 14100 | 34.2 | 93500 | > 100
O=C(/C(=N/Nc1cn[nH]c(=O)c1Cl)c1ccccc1)c1ccccc1 |  | 54.3 |  | > 100 |  | > 100 |  | 71.6 |  | > 100 |  | > 100 |  |  |  | 56.2 |  | 66.6 |  | > 100
COc1ccc(-c2conc2-c2ccccc2)cc1 | 416 |  | 430 | > 100 | 81 | > 100 | 109 | 0.455 | 647 | > 100 | 10800 | > 100 | 324 | 4.37 |  |  | 549 | > 100 | 292 | > 100
COc1cc(/C=C2/C(=O)N(C(=O)c3ccccc3O)N=C2C)ccc1O |  | > 100 |  | > 38.9 |  | > 100 |  |  |  | > 100 |  | > 100 |  | > 100 |  | 0.989 |  |  |  | > 100
O=c1c2ccccc2c(=O)c2c1sc1c(=O)c3ccc(O)cc3c(=O)c12 | 174 | 0.312 | 150 | 0.285 | 436 | 1.56 | 183 | 0.4 | 342 | 1.24 | 247 | 0.541 |  |  | 263 | 0.924 | 181 | 0.505 | 2590 | 10.3
O=C1Cc2ccccc2CCc2ccccc21 |  |  |  | > 100 |  | > 100 |  | > 100 |  | > 100 |  | > 100 |  | > 100 |  | > 100 |  | > 100 |  | > 100
CNc1ccc(N=Nc2cccc3ncccc23)cc1 | > 100000 | > 100 | 49000 | > 100 | 37100 | > 100 | 21200 | > 100 | > 80600 | > 100 | > 100000 | > 100 |  |  |  |  | 17100 | > 100 | > 24000 | > 100
CCC1(Cl)C(=O)NC(=O)N(C2CC(O)C(CO)O2)C1N=[N+]=[N-] (configuration not stated) |  |  |  | > 100 |  | > 100 |  | > 100 |  | > 100 |  | > 100 |  | > 100 |  | > 100 |  | > 100 |  | > 100
O=C1Nc2ccc(Br)cc2C1=Nc1ccc(Cl)cc1 |  | > 100 |  | 52.1 |  | 32.5 |  |  |  | 97 |  | 82.5 |  | > 100 |  | 40 |  | > 100 |  | 51.9
CCOc1ccccc1NC(=O)CCC(=O)NN |  |  |  | > 100 |  | > 100 |  | > 100 |  | > 100 |  | > 100 |  | > 100 |  | > 100 |  | > 100 |  | > 100
